{"source": "patent US20080261980A1", "about": "“Use of Thiazolidinone Derivatives as Antiangiogenic Agents” (Cell Therapeutics, Inc., priority 2004, published 2008)", "key": {"[1]": {"test_system": "secreted VEGF (Hep3B/VEGF Luciferase cells)", "test": "Secreted VEGF ELISA test in Hep3B-VEGF Luciferase cells, hypoxia induced by deferoxamine", "assay_type": "cell-based", "conditions": "Homo sapiens, deferoxamine about 100 μM, 18-20 hours, 50% reduction of secreted VEGF", "procedure": "(§1) The compounds having inhibitory activity in the Hif-1a/p300 assay described above were evaluated using a cellular test on genetically modified human hepatocarcinoma Hep3B cells (Hep3B-VEGFLuciferase) in order to stably express a vector in which the Open Reading Frame of firefly Luciferase is under the control of the rat VEGF gene promoter.\n(§2) The Hep-3B-VEGF Luciferase cell line was obtained according to the following procedure.\n(§3) Human hepatocarcinoma cells Hep-3B (ATCC reference No. HB-8064) were seeded onto 6-well plates at a concentration of 2.5×10^5 cells/well in 2 ml DMEM/10% FCS and the following day were transfected using Fugene 6 (Roche Biochemicals®). In each well, the transfection mixtures contained 6 μl of the transfection reagent Fugene 6, 1 μg of the pxp2-VEGF-luciferase reporter plasmid (VEGF rat promoter, NCBI GenBank No. of accession U22373, Levy et al., J. Biol. Chem. 270 (22), 13333-13340, 1995), and 10 ng of pcDNA3.1(+)plasmid (INVITROGEN) which makes the cells resistant to neomycin. Transfection was carried out according to the manufacturer's instructions.\n(§4) A suitable cell population (phenotypically resistant to neomycin) was selected by means of a cloning approach based on the “dilution limit” procedure (Sambrook J., Fritsch E. F. and Maniatis T. (1989) Molecular Cloning, A Laboratory Manual; Cold Spring Harbor Laboratories). The subsequent assays for Luciferase expression/activity (Luciferase assay) and for the quantification of secreted VEGF in the supernatant (ELISA secreted VEGF test) were carried out with the stably transfected selected cells.\n(§5) The following experimental protocol was used:\n(§6) Day 1. Hep-3B-VEGF Luciferase cells were seeded onto “blank” 96-wells plates (Greiner) at a density of 1×10^4 cells/well/125 μl of medium, then left to adhere overnight in thermostat (37° C./5% CO2).\n(§7) Day 2. 75 μl of “3.2× working solutions” of compound (previously prepared in culture medium so that the DMSO concentration is 1.6% v/v) were added to the cells (partial volume/well=200 μl, partial concentration of compound=1.2×, partial concentration of DMSO=0.6%). After 1 hour incubation in thermostat, hypoxia was induced chemically by addition of 40 μl/well of a 6× (600 μM) stock solution of deferoxamine (final volume/well=240 μl, final concentration of compound=1×, final concentration of DMSO=0.5%, final concentration of deferoxamine=1×≈100 μM). The plates were then thermostated for further 18-20 hours.\n(§8) Day 3. The Luciferase assay and the secreted VEGF ELISA test were carried out as follows.\nQuantification of secreted VEGF was performed using the “DuoSet Elisa Development System human VEGF” kit (R&D Systems). […] of the supernatant from the “blank” 96-well plates with the cells of the Hep3B/VEGF Luciferase clone were transferred into transparent 96-well plates (Maxisorp) and assayed according to the indications of the kit manufacturer.\n(§9) IC50 values (concentration of the compound that causes 50% inhibition of the luciferase signal or 50% reduction of secreted VEGF) for some compounds of the invention are reported in table 2."}, "[2]": {"test_system": "VEGF promoter (rat VEGF gene promoter-luciferase reporter in Hep3B cells)", "test": "Luciferase assay in Hep3B-VEGF Luciferase cells, hypoxia induced by deferoxamine", "assay_type": "cell-based, human", "conditions": "deferoxamine about 100 μM, 18-20 hours, 50% inhibition of the luciferase signal", "procedure": "as §1\nHif-1 induction by deferoxamine (which causes hypoxia) induces luciferase transcription through activation of the VEGF promoter, which in turn increases luciferase activity, which can be measured with a commercially available kit. The compounds interfering with the Hif-1a/p300 complex inhibit Hif-dependent luciferase activation, resulting in a reduction of luciferase activity. Therefore, this assay allows to evaluate the activity of the compounds towards the VEGF promoter, which is essential to VEGF production and subsequent tumor angiogenesis.\nas §2, §3, §4, §5, §6, §7, §8\nQuantification of the expression of the Luciferase reporter gene was performed by means of the Bright Glo Reagent (Promega). After removing the supernatant and washing once with PBS, 40 μl/well of Bright Glo Reagent were added to blank 96-well plates with Hep3B/VEGF-Luciferase cells. The expression levels of the reporter gene were determined by reading the plates with a luminometer.\nas §9"}, "[3]": {"target": "T1, Biot-HIF-1α786-826/GST-p300323-423 (Homo sapiens, UniProt Q09472)", "T1 construct": "the p300 region ranging from amino acids 323 to 423; Hif-1α fragment corresponding to C-terminal 786-826 amino acids; made in house; host or cells: E. coli BL21 (DE3), vector pGEX-4T-1", "T1 sequence (Q09472 323-423)": "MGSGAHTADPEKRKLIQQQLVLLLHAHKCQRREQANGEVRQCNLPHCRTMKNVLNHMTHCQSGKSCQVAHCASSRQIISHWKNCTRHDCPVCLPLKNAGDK", "test": "Primary biochemical assay for inhibition of the Hif-1α/p300 interaction (DELFIA fluorescence assay)", "assay_type": "binding", "conditions": "biotinylated Hif-1α 786-826 / GST-p300 323-423, mean of two independent experiments", "procedure": "Primary Biochemical Assay for the Inhibition of Biot-HIF-1α^786-826/GST-p300^323/423\nThe compounds were evaluated for their ability to inhibit the interaction between Hif-1α and p300 using a fluorescence assay (DELFIA™). The procedure described by Freedman S J at al., Nature Structural Biology 2003, 10 (7), 504-512 was suitably modified.\nThe human biotinylated Hif-1α fragment corresponding to C-terminal 786-826 amino acids (Biotinylated Hif-1α^786-826) was obtained from AnaSpec Inc (San Jose, Calif., USA) and used without further purifications.\nA construct expressing the GST-p300^323-423 fragment was transformed in the BL21 strain (DE3) of E. coli. Said construct was obtained by cloning in the expression vector pGEX-4T-1 (Amersham No. 27-45-80-01) the DNA sequence which encodes for the p300 region ranging from amino acids 323 to 423; the DNA sequence was obtained by PCR (Polymerase Chain Reaction). Protein expression was induced with 1 mM isopropyl-1-thio-13-D-galactopyranoside (IPTG). The bacteria were lysed by sonication in the presence of a suitable buffer (50 mM Tris.HCl pH 8.00, 100 mM NaCl, 0.1 mM ZnSO4, 1 mM DTT, 0.1 mg/ml lysozyme and a tablet of Complete EDTA-free Protease Inhibitor Cocktail Tablets (Roche, catalogue number 1 873 580)) and the GST fusion protein present in the soluble fraction was purified on a Glutathione-Sepharose 4B resin (Amersham Biosciences; no. 27-4574-01). The protein final concentration was determined according to Bradford with the Biorad assay (Bradford M., Anal. Biochem., 72, 248, (1976)) and sample purity was evaluated by SDS-PAGE. The samples were stored at −80° C. in 50% glycerol.\nThe assay was carried out using NUNC Maxisorp 96-well plates as follows.\nC96 NUNC Maxisorp plates (from Nunc, product No. 446612) were incubated overnight with streptavidin (Sigma; product No. S 4762) at a final concentration of 1 μg/ml in PBS buffer (Phosphate Buffered Saline 10 mM sodium phosphate, 150 mM sodium chloride pH 7.4). Each well was subsequently washed with 3×300 μl of TBST buffer (50 mM Tris-HCl pH 8.0, 150 mM NaCl, 0.05% (v/v) Tween 20). Each well was then added with 100 μl of a 10 nM solution of biotinylated Hif-1α^786-826 in TBSB (50 mM Tris-HCl pH 8.0, 150 mM NaCl, 5% (w/v) BSA (Sigma, product No. A 2153)) and incubated for 1 h at 25° C. In the last row of each plate, TBSB buffer only was added. Each well was subsequently washed with 3×300 μl of TBST buffer. The thus prepared plate represented the assay plate.\nSeparately, a plate (daughter plate) containing in each well 10 μl of each test compound dissolved in DMSO to a concentration of 10 μM was prepared. This plate was added with 100 μl of a 111 pM solution of GST-p300^323-423 diluted in the incubation buffer (TBSB added with 0.1% (v/v) Tween 20, 0.5 mM DTT, 10 μM ZnCl2) and the whole was mixed. 100 μl of the mixture contained in the daughter plate was immediately transferred to the assay plate.\nEach daughter plate was prepared with 80 different compounds at a 10 μM concentration, safe for the last two well rows, wherein each well was added with 10 μl of DMSO. These two rows represented the positive (row 11, +Hif-1) and negative (row 12, −Hif-1) controls.\nAfter incubation for 1 h at 25° C., each well was washed with 3×300 μl of TBST buffer (50 mM Tris-HCl pH 8.0, 150 mM NaCl, 0.05% (v/v) Tween 20). Each well was then added with 60.8 ng of an europium-labelled anti-GST antibody (DELFIA Eu-N1 labeled; Perkin Elmer; product no. A D 0251) dissolved in 100 μl of TBST buffer containing 10 μM ZnCl2. After incubation for 1 h at room temperature, each well was washed with 3×300 μl of TBST buffer, then 100 μl of signal amplification solution (Enhancement Solution, Perkin Elmer product No. 1244-105) was added.\nThe plates were then read using a FUSION alpha-FP-HT reader (Perkin Elmer) in fluorescence mode for time resolution.\nThe activity of the compounds was calculated as follows. […]"}}}
{"smiles": "COC(=O)c1ccccc1-c1ccc(/C=C2/SC(=S)N(Cc3ccccc3)C2=O)o1", "note": "[Compound 1, 2-[5-(3-benzyl-4-oxo-2-thioxo-thiazolidine-5-ylidenemethyl)-furan-2-yl]benzoic acid methyl ester]", "values": [{"measurement": "IC50", "setting": "[1]", "value": 0.37, "unit": "µM"}, {"measurement": "IC50", "setting": "[2]", "value": 6.66, "unit": "µM"}, {"measurement": "IC50", "setting": "[3]", "value": 8.6, "unit": "µM"}]}
{"smiles": "NS(=O)(=O)c1ccc(-c2ccc(/C=C3/SC(=S)N(Cc4ccccc4)C3=O)o2)cc1", "note": "[Compound 7, 4-[5-(3-benzyl-4-oxo-2-thioxo-thiazolidine-5-ylidenemethyl)-furan-2-yl]benzenesulfonamide]", "values": [{"measurement": "IC50", "setting": "[1]", "value": 0.87, "unit": "µM"}, {"measurement": "IC50", "setting": "[2]", "value": 3.16, "unit": "µM"}, {"measurement": "IC50", "setting": "[3]", "value": 4.9, "unit": "µM"}]}
{"smiles": "COC(=O)c1ccc(-c2ccc(/C=C3/SC(=S)N(Cc4ccc(C)cc4)C3=O)o2)cc1", "note": "[Compound 9, 4-{5-[3-(4-methylbenzyl)-4-oxo-2-thioxo-thiazolidine-5-ylidenemethyl]-furan-2-yl}benzoic acid methyl ester]", "values": [{"measurement": "IC50", "setting": "[1]", "value": 0.18, "unit": "µM"}, {"measurement": "IC50", "setting": "[2]", "value": "> 5", "unit": "µM"}, {"measurement": "IC50", "setting": "[3]", "value": 5.9, "unit": "µM"}]}
{"smiles": "COC(=O)c1ccc(-c2ccc(/C=C3/SC(=S)N(Cc4cccs4)C3=O)o2)cc1", "note": "[Compound 13, 4-{5-[3-(2-thienyl)methyl-4-oxo-2-thioxo-thiazolidine-5-ylidenemethyl]-furan-2-yl}benzoic acid methyl ester]", "values": [{"measurement": "IC50", "setting": "[1]", "value": 0.58, "unit": "µM"}, {"measurement": "IC50", "setting": "[2]", "value": 9.64, "unit": "µM"}, {"measurement": "IC50", "setting": "[3]", "value": 14.7, "unit": "µM"}]}
{"smiles": "COC(=O)c1ccc(-c2ccc(/C=C3/SC(=S)N(CCCN4CCOCC4)C3=O)o2)cc1", "note": "[Compound 16, 4-{5-[3-(morpholine-4-yl-propyl)-4-oxo-2-thioxo-thiazolidine-5-ylidenemethyl]-furan-2-yl}benzoic acid methyl ester]", "values": [{"measurement": "IC50", "setting": "[1]", "value": 0.7, "unit": "µM"}, {"measurement": "IC50", "setting": "[2]", "value": 2.07, "unit": "µM"}, {"measurement": "IC50", "setting": "[3]", "value": 11.1, "unit": "µM"}]}
{"smiles": "COc1ccc(CCN2C(=O)/C(=C\\c3ccc(-c4ccc(C#N)cc4)o3)SC2=S)cc1OC", "note": "[Compound 18, 4-{5-[3-[2-(3,4-dimethoxyphenyl)ethyl]-4-oxo-2-thioxo-thiazolidine-5-ylidenemethyl]-furan-2-yl}benzonitrile]", "values": [{"measurement": "IC50", "setting": "[1]", "value": 0.49, "unit": "µM"}, {"measurement": "IC50", "setting": "[2]", "value": 3.17, "unit": "µM"}, {"measurement": "IC50", "setting": "[3]", "value": 29.9, "unit": "µM"}]}
{"smiles": "N#Cc1ccc(-c2ccc(/C=C3/SC(=S)N(CCc4ccccc4)C3=O)o2)cc1", "note": "[Compound 19, 4-{5-[3-(2-phenyl)ethyl-4-oxo-2-thioxo-thiazolidine-5-ylidenemethyl]-furan-2-yl}benzonitrile]", "values": [{"measurement": "IC50", "setting": "[1]", "value": 0.33, "unit": "µM"}, {"measurement": "IC50", "setting": "[2]", "value": 7.29, "unit": "µM"}, {"measurement": "IC50", "setting": "[3]", "value": 1.4, "unit": "µM"}]}
{"smiles": "COC(=O)c1ccc(-c2ccc(/C=C3/SC(=S)N(CCc4ccccc4)C3=O)o2)cc1", "note": "[Compound 20, 4-{5-[3-[2-(phenyl)ethyl]-4-oxo-2-thioxo-thiazolidine-5-ylidenemethyl]-furan-2-yl}benzoic acid methyl ester]", "values": [{"measurement": "IC50", "setting": "[1]", "value": 0.46, "unit": "µM"}, {"measurement": "IC50", "setting": "[2]", "value": 10.5, "unit": "µM"}, {"measurement": "IC50", "setting": "[3]", "value": 4.2, "unit": "µM"}]}
{"smiles": "COC(=O)c1ccc(-c2ccc(/C=C3/SC(=S)N(CCc4ccc(OC)c(OC)c4)C3=O)o2)cc1", "note": "[Compound 21, 4-{5-[3-[2-(3,4-dimethoxyphenyl)ethyl]-4-oxo-2-thioxo-thiazolidine-5-ylidenemethyl]-furan-2-yl}benzoic acid methyl ester]", "values": [{"measurement": "IC50", "setting": "[1]", "value": 0.24, "unit": "µM"}, {"measurement": "IC50", "setting": "[2]", "value": 4.86, "unit": "µM"}, {"measurement": "IC50", "setting": "[3]", "value": 7.4, "unit": "µM"}]}
